Assay results reported in patent US20240246937A1 (MERCK SHARP & DOHME LLC, priority 2021, published 2024).

Molecular target: recombinant IL4I1 (Homo sapiens (Human), UniProt Q96RQ9)
Experiment: IL4I1 Enzymatic Assay (Amplex Red/HRP coupled fluorescence detection of H2O2)
Format: biochemical
Details: 240 min; recombinant IL4I1, four-hour pre-incubation with compound
How it was run: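 Ten-point, 1:3 compound titrations were fitted by four-parameter sigmoidal regression to give EC50. Resorufin fluorescence (544/590 nm) from Amplex Red/HRP-coupled H2O2 detection was read 120 min after adding 1 mM each aromatic amino acid to 1 nM IL4I1, following a 4 h compound pre-incubation in pH 7.0 Hepes buffer.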

Chain of recombinant IL4I1 (Q96RQ9 22-567): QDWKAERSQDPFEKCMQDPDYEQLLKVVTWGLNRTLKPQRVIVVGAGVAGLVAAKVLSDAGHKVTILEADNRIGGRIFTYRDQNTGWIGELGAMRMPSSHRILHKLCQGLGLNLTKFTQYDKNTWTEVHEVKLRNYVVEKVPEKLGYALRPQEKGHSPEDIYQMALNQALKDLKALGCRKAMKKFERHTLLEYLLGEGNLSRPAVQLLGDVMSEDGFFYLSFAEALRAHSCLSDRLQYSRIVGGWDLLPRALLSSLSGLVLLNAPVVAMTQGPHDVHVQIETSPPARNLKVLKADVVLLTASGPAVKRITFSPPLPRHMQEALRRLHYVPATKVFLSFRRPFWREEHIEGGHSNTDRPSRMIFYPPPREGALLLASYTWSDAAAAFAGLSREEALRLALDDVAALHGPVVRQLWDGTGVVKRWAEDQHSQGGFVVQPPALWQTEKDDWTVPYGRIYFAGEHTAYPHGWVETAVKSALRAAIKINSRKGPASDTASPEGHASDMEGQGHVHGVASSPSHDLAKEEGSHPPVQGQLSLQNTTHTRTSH

Row | Compound | EC50
1 | O=c1c(=O)n([C@H]2C[C@@H](c3ccccc3)C2)ccn1Cc1nnc(-c2nccs2)s1 [Example 372, 1-((cis)-3-phenylcyclobutyl)-4-((5-(thiazol-2-yl)-1,3,4-thiadiazol-2-yl)methyl)-1,4-dihydropyrazine-2,3-dione] | 23 nM
2 | O=c1c(=O)n(C2CCC2)ccn1Cc1cc(-c2ccccc2)ns1 [Example 165] | 12 nM
3 | O=C1C(=O)N(C2CCC2)CCN1Cc1cc(-c2cccc(F)c2)no1 [Example 158, 1-cyclobutyl-4-((3-(3-fluorophenyl)isoxazol-5-yl)methyl)piperazine-2,3-dione] | 4 nM
4 | O=c1c(=O)n(C2CCC2)ccn1Cc1nnc(-c2ccccn2)s1 [Example 370, 1-cyclobutyl-4-((5-(pyridin-2-yl)-1,3,4-thiadiazol-2-yl)methyl)-1,4-dihydropyrazine-2,3-dione] | 20 nM
5 | CC1(n2ccn(Cc3cc(-c4cccc(F)c4)on3)c(=O)c2=O)CCC1 [Example 421, 1-((5-(3-fluorophenyl)isoxazol-3-yl)methyl)-4-(1-methylcyclobutyl)-1,4-dihydropyrazine-2,3-dione] | 5 nM
6 | O=C1C(=O)N(C2C[C@@H]3C[C@@H]3C2)CCN1Cc1ccc(-c2ccccc2)nn1 (stereo partly drawn) [Example 284, 1-((cis)-bicyclo[3.1.0]hexan-3-yl)-4-((6-phenylpyridazin-3-yl)methyl)piperazine-2,3-dione] | 8 nM
7 | O=c1c(=O)n(C2CCCC2)ccn1Cc1nnc(-c2ccc(F)cc2)s1 [Example 35, 1-cyclopentyl-4-((5-(4-fluorophenyl)-1,3,4-thiadiazol-2-yl)methyl)-1,4-dihydropyrazine-2,3-dione] | 3 nM
8 | CC1CN(C2CCC2)C(=O)C(=O)N1Cc1nnc(-c2ccccc2)s1 (stereo not drawn) [Example 357, 1-cyclobutyl-5-methyl-4-((5-phenyl-1,3,4-thiadiazol-2-yl)methyl)piperazine-2,3-dione] | 32 nM
9 | O=c1c(=O)n(C23CC(F)(C2)C3)ccn1Cc1ccc(-c2ccccn2)cn1 [Example 229, 1-([2,3′-bipyridin]-6′-ylmethyl)-4-(3-fluorobicyclo[1.1.1]pentan-1-yl)-1,4-dihydropyrazine-2,3-dione] | 54 nM
10 | CC1(n2ccn(Cc3ccc(-n4ccnn4)cn3)c(=O)c2=O)CC1 [Example 385, 1-((5-(1H-1,2,3-triazol-1-yl)pyridin-2-yl)methyl)-4-(1-methylcyclopropyl)-1,4-dihydropyrazine-2,3-dione] | 42 nM
11 | O=c1c(=O)n(C23CC(F)(C2)C3)ccn1Cc1cc(-c2cccnc2)on1 [Example 211, 1-(3-fluorobicyclo[1.1.1]pentan-1-yl)-4-((5-(pyridin-3-yl)isoxazol-3-yl)methyl)-1,4-dihydropyrazine-2,3-dione] | 61 nM
12 | O=c1c(=O)n([C@H]2C[C@H]3C[C@H]3C2)ccn1Cc1ccc(-c2cccnc2)nn1 [Example 416, 1-((cis)-bicyclo[3.1.0]hexan-3-yl)-4-((6-(pyridin-3-yl)pyridazin-3-yl)methyl)-1,4-dihydropyrazine-2,3-dione] | 28 nM
13 | CC(c1cnn(-c2ccccc2)c1)N1CCN(C2CCCC2)C(=O)C1=O (stereo not drawn) [Example 347, 1-cyclopentyl-4-(1-(1-phenyl-1H-pyrazol-4-yl)ethyl)piperazine-2,3-dione] | 74 nM
14 | N#CC1(n2ccn(Cc3ccc(-n4ccnn4)cn3)c(=O)c2=O)CC1 [Example 387, 1-(4-((5-(1H-1,2,3-triazol-1-yl)pyridin-2-yl)methyl)-2,3-dioxo-3,4-dihydropyrazin-1(2H)-yl)cyclopropane-1-carbonitrile] | 677 nM
15 | O=C1C(=O)N(C2CCCC2)CCN1Cc1nnc(N2CC[C@H](CF)C2)s1 [Example 312, (S)-1-cyclopentyl-4-((5-(3-(fluoromethyl)pyrrolidin-1-yl)-1,3,4-thiadiazol-2-yl)methyl)piperazine-2,3-dione] | 69 nM
16 | CC(C)(c1cccnc1)N1CCN(Cc2nnc(-c3ccccc3)s2)C(=O)C1=O [Example 300, 1-((5-phenyl-1,3,4-thiadiazol-2-yl)methyl)-4-(2-(pyridin-3-yl)propan-2-yl)piperazine-2,3-dione] | 86 nM
17 | O=c1c(=O)n(C2CCC2)ccn1Cc1ccc(-n2ccnc2)nn1 [Example 330, 1-((6-(1H-imidazol-1-yl)pyridazin-3-yl)methyl)-4-cyclobutyl-1,4-dihydropyrazine-2,3-dione] | 16 nM
18 | O=c1c(=O)n(C23CC(C2)C3)ccn1Cc1cc(-c2ccccn2)on1 [Example 169, 1-(bicyclo[1.1.1]pentan-1-yl)-4-((5-(pyridin-2-yl)isoxazol-3-yl)methyl)-1,4-dihydropyrazine-2,3-dione] | 7 nM
19 | O=C1C(=O)N([C@H]2C[C@H]3C[C@H]3C2)CCN1Cc1ccc(-c2ccccc2F)nn1 [Example 51, 1-((1R,3r,5S)-bicyclo[3.1.0]hexan-3-yl)-4-((6-(2-fluorophenyl)pyridazin-3-yl)methyl)piperazine-2,3-dione] | 8 nM
20 | O=C1C(=O)N([C@H]2C[C@H](c3ccccc3)C2)CCN1Cc1ccc(-c2ccccc2)nn1 [Example 96A, trans-1-(3-phenylcyclobutyl)-4-((6-phenylpyridazin-3-yl)methyl)piperazine-2,3-dione] | 14 nM
21 | N#CC1(n2ccn(Cc3cn(-c4ccccn4)nn3)c(=O)c2=O)CC1 [Example 258, 1-(2,3-dioxo-4-((1-(pyridin-2-yl)-1H-1,2,3-triazol-4-yl)methyl)-3,4-dihydropyrazin-1(2H)-yl)cyclopropane-1-carbonitrile] | 78 nM
22 | O=c1c(=O)n(C2(CF)CC2)ccn1Cc1ccc(-c2ccccn2)nn1 [Example 239, 1-(1-(fluoromethyl)cyclopropyl)-4-((6-(pyridin-2-yl)pyridazin-3-yl)methyl)-1,4-dihydropyrazine-2,3-dione] | 82 nM
23 | O=C1C(=O)N([C@@H]2CC[C@@H](c3ccccc3)C2)CCN1Cc1nnc(-c2ccccc2)s1 (single isomer, unassigned) [Example 440D, (R or S, R or S)-1-((5-phenyl-1,3,4-thiadiazol-2-yl)methyl)-4-(3-phenylcyclopentyl)piperazine-2,3-dione] | 8 nM
24 | O=c1c(=O)n(C2CCC2)ccn1Cc1ccc(-c2nccs2)nn1 [Example 367, 1-cyclobutyl-4-((6-(thiazol-2-yl)pyridazin-3-yl)methyl)-1,4-dihydropyrazine-2,3-dione] | 9 nM
25 | O=c1c(=O)n(C2CCC2)ccn1Cc1cnc(-c2ccccc2)cn1 [Example 127, 1-cyclobutyl-4-((5-phenylpyrazin-2-yl)methyl)-1,4-dihydropyrazine-2,3-dione] | 3 nM

The next lines start with the values.

Row | EC50 | Compound
26 | 15 nM | O=C1C(=O)N(C23CC(C2)C3)CCN1Cc1ccc(-n2nccn2)cc1 [Example 406, 1-(4-(2H-1,2,3-triazol-2-yl)benzyl)-4-(bicyclo[1.1.1]pentan-1-yl)piperazine-2,3-dione]
27 | 3 nM | O=C1C(=O)N(C2CC(c3ccccc3)C2)CCN1Cc1ccc(-c2ccccc2)nc1 (stereo not drawn) [Example 142, 1-(3-phenylcyclobutyl)-4-((6-phenylpyridin-3-yl)methyl)piperazine-2,3-dione]
28 | 7 nM | O=C1C(=O)N(C2CCCC2)CCN1Cc1ccc(-c2cncs2)nc1 [Example 17, 1-cyclopentyl-4-((6-(thiazol-5-yl)pyridin-3-yl)methyl)piperazine-2,3-dione]
29 | 138 nM | CC1(n2ccn(Cc3ccc(-n4nccn4)nc3)c(=O)c2=O)CC1 [Example 415, 1-((6-(2H-1,2,3-triazol-2-yl)pyridin-3-yl)methyl)-4-(1-methylcyclopropyl)-1,4-dihydropyrazine-2,3-dione]
30 | 9 nM | O=C1C(=O)N([C@H]2C[C@H]3C[C@H]3C2)CCN1Cc1cnc(-c2ccccc2)c(F)c1 [Example 131, 1-((cis)-bicyclo[3.1.0]hexan-3-yl)-4-((5-fluoro-6-phenylpyridin-3-yl)methyl)piperazine-2,3-dione]
31 | 37 nM | O=C1C(=O)N(c2ccccn2)CCN1Cc1ccc(-c2ccccc2)nn1 [Example 433, 1-((6-phenylpyridazin-3-yl)methyl)-4-(pyridin-2-yl)piperazine-2,3-dione]
32 | 39 nM | O=C1C(=O)N(C2CCC2)CCN1Cc1cn(-c2ccccc2)cn1 [Example 174, 1-cyclobutyl-4-((1-phenyl-1H-imidazol-4-yl)methyl)piperazine-2,3-dione]
33 | 4 nM | O=C1C(=O)N(C2CCC2)CCN1Cc1cnc(-c2ccccc2)s1 [Example 70, 1-cyclobutyl-4-((2-phenylthiazol-5-yl)methyl)piperazine-2,3-dione]
34 | 6 nM | O=C1C(=O)N(C2CCC2)CCN1Cc1cnc(-c2ccccc2F)s1 [Example 78, 1-cyclobutyl-4-((2-(2-fluorophenyl)thiazol-5-yl)methyl)piperazine-2,3-dione]
35 | 17 nM | O=C1C(=O)N(C2CCC2)CCN1Cc1ccc(-c2nccs2)nn1 [Example 365, 1-cyclobutyl-4-((6-(thiazol-2-yl)pyridazin-3-yl)methyl)piperazine-2,3-dione]
36 | 42 nM | O=c1c(=O)n(C23CC(F)(C2)C3)ccn1Cc1ccc(-n2nccn2)cn1 [Example 217, 1-((5-(2H-1,2,3-triazol-2-yl)pyridin-2-yl)methyl)-4-(3-fluorobicyclo[1.1.1]pentan-1-yl)-1,4-dihydropyrazine-2,3-dione]
37 | 20 nM | O=C1C(=O)N(C2CCCC2)CCN1Cc1ccc(-n2nccn2)nc1 [Example 336, 1-((6-(2H-1,2,3-triazol-2-yl)pyridin-3-yl)methyl)-4-cyclopentylpiperazine-2,3-dione]
38 | 17 nM | O=C1C(=O)N(C23CC(C2)C3)CCN1Cc1ccc(-n2nccn2)nc1 [Example 116, 1-((6-(2H-1,2,3-triazol-2-yl)pyridin-3-yl)methyl)-4-(bicyclo[1.1.1]pentan-1-yl)piperazine-2,3-dione]
39 | 47 nM | O=c1c(=O)n(C23CC(F)(C2)C3)ccn1Cc1ccc(-n2nccn2)nc1 [Example 255, 1-((6-(2H-1,2,3-triazol-2-yl)pyridin-3-yl)methyl)-4-(3-fluorobicyclo[1.1.1]pentan-1-yl)-1,4-dihydropyrazine-2,3-dione]
